In ChEMBL document CHEMBL5154765, “Design, synthesis, and biological evaluation of novel spiro[pyrrolidine-2,3'-quinolin]-2'-one derivatives as potential chitin synthase inhibitors and antifungal agents” (Eur J Med Chem, 2022):
Values after ≈ are worked out from the molar mass of the structure shown.

Experiments:
Cryptococcus neoformans [1] = experiment: Antifungal activity against Cryptococcus neoformans ATCC 32719 incubated for 72 hrs in presence of polyoxin B by checker board assay; type: functional
Aspergillus fumigatus [2] = experiment: Antifungal activity against Aspergillus fumigatus GIMCC 3.19 assessed as polyoxin B MIC incubated for 72 hrs by checker board assay; type: functional
Aspergillus flavus [3] = experiment: Antifungal activity against Aspergillus flavus ATCC 16870 assessed as fluconazole MIC incubated for 72 hrs by checker board assay; type: functional
Aspergillus fumigatus [4] = experiment: Antifungal activity against fluconazole resistant Aspergillus fumigatus GIMCC 3.19 assessed as reduction in fungal growth incubated for 24 hrs by two fold broth dilution method; type: functional
Candida albicans [5] = experiment: Synergistic antifungal activity against Candida albicans ATCC 76615 assessed as fractional inhibitory concentration index incubated for 72 hrs in presence of polyoxin B by checker board assay; type: functional
Aspergillus flavus [6] = experiment: Synergistic antifungal activity against Aspergillus flavus ATCC 16870 assessed as fractional inhibitory concentration index incubated for 72 hrs in presence of polyoxin B by checker board assay; type: functional
Candida albicans [7] = experiment: Antifungal activity against Candida albicans ATCC 76615 assessed as reduction in fungal growth incubated for 24 hrs by two fold broth dilution method; type: functional
Candida albicans [8] = experiment: Antifungal activity against fluconazole resistant Candida albicans ATCC 76615 assessed as reduction in fungal growth incubated for 24 hrs by two fold broth dilution method; type: functional
Aspergillus flavus [9] = experiment: Antifungal activity against Aspergillus flavus ATCC 16870 incubated for 72 hrs in presence of fluconazole by checker board assay; type: functional
Candida albicans [10] = experiment: Antifungal activity against Candida albicans ATCC 76615 incubated for 72 hrs in presence of fluconazole by checker board assay; type: functional
Aspergillus fumigatus [11] = experiment: Antifungal activity against Aspergillus fumigatus GIMCC 3.19 assessed as reduction in fungal growth incubated for 24 hrs by two fold broth dilution method; type: functional
Candida albicans [12] = experiment: Antifungal activity against Candida albicans ATCC 76615 assessed as polyoxin B MIC incubated for 72 hrs by checker board assay; type: functional
Candida albicans [13] = experiment: Antifungal activity against Candida albicans ATCC 76615 incubated for 72 hrs in presence of polyoxin B by checker board assay; type: functional
Aspergillus fumigatus [14] = experiment: Synergistic antifungal activity against Aspergillus fumigatus GIMCC 3.19 assessed as fractional inhibitory concentration index incubated for 72 hrs in presence of fluconazole by checker board assay; type: functional
Candida albicans [15] = experiment: Antifungal activity against Candida albicans ATCC 76615 assessed as reduction in fungal growth in presence of sorbitol incubated for 24 hrs by two fold broth dilution method; type: functional
Candida albicans [16] = experiment: Synergistic antifungal activity against Candida albicans ATCC 76615 assessed as fractional inhibitory concentration index incubated for 72 hrs in presence of fluconazole by checker board assay; type: functional
Cryptococcus neoformans [17] = experiment: Antifungal activity against Cryptococcus neoformans ATCC 32719 assessed as fluconazole MIC incubated for 72 hrs by checker board assay; type: functional
Aspergillus fumigatus [18] = experiment: Antifungal activity against Aspergillus fumigatus GIMCC 3.19 incubated for 72 hrs in presence of fluconazole by checker board assay; type: functional
Cryptococcus neoformans [19] = experiment: Antifungal activity against Cryptococcus neoformans ATCC 32719 assessed as reduction in fungal growth in presence of sorbitol incubated for 24 hrs by two fold broth dilution method; type: functional
Aspergillus fumigatus [20] = experiment: Antifungal activity against Aspergillus fumigatus GIMCC 3.19 incubated for 72 hrs in presence of polyoxin B by checker board assay; type: functional
Aspergillus fumigatus [21] = experiment: Antifungal activity against Aspergillus fumigatus GIMCC 3.19 assessed as fluconazole MIC incubated for 72 hrs by checker board assay; type: functional
[22] = Inhibition of Candida tropicalis ATCC750 chitin synthase using UDP-GlcNAc as substrate incubated for 1 hr by microplate reader analysis
Cryptococcus neoformans [23] = experiment: Synergistic antifungal activity against Cryptococcus neoformans ATCC 32719 assessed as fractional inhibitory concentration index incubated for 72 hrs in presence of polyoxin B by checker board assay; type: functional
Aspergillus fumigatus [24] = experiment: Synergistic antifungal activity against Aspergillus fumigatus GIMCC 3.19 assessed as fractional inhibitory concentration index incubated for 72 hrs in presence of polyoxin B by checker board assay; type: functional
Cryptococcus neoformans [25] = experiment: Antifungal activity against fluconazole resistant Cryptococcus neoformans ATCC 32719 assessed as reduction in fungal growth incubated for 24 hrs by two fold broth dilution method; type: functional
Aspergillus flavus [26] = experiment: Antifungal activity against fluconazole resistant Aspergillus flavus ATCC 16870 assessed as reduction in fungal growth incubated for 24 hrs by two fold broth dilution method; type: functional
Cryptococcus neoformans [27] = experiment: Antifungal activity against Cryptococcus neoformans ATCC 32719 assessed as polyoxin B MIC incubated for 72 hrs by checker board assay; type: functional
Aspergillus flavus [28] = experiment: Antifungal activity against Aspergillus flavus ATCC 16870 assessed as reduction in fungal growth in presence of sorbitol incubated for 24 hrs by two fold broth dilution method; type: functional
Cryptococcus neoformans [29] = experiment: Antifungal activity against Cryptococcus neoformans ATCC 32719 incubated for 72 hrs in presence of fluconazole by checker board assay; type: functional
Candida albicans [30] = experiment: Antifungal activity against micafungin resistant Candida albicans ATCC 76615 assessed as reduction in fungal growth incubated for 24 hrs by two fold broth dilution method; type: functional
Candida tropicalis = experiment: Inhibition of Candida tropicalis ATCC750 chitin synthase at 300 ug/ml using UDP-GlcNAc as substrate incubated for 1 hr by microplate reader analysis relative to control; conditions: dose 300.0 µg/ml
Aspergillus flavus [31] = experiment: Antifungal activity against Aspergillus flavus ATCC 16870 assessed as reduction in fungal growth incubated for 24 hrs by two fold broth dilution method; type: functional
Aspergillus flavus [32] = experiment: Antifungal activity against Aspergillus flavus ATCC 16870 incubated for 72 hrs in presence of polyoxin B by checker board assay; type: functional
Candida albicans [33] = experiment: Antifungal activity against Candida albicans ATCC 76615 assessed as fluconazole MIC incubated for 72 hrs by checker board assay; type: functional
Aspergillus fumigatus [34] = experiment: Antifungal activity against Aspergillus fumigatus GIMCC 3.19 assessed as reduction in fungal growth in presence of sorbitol incubated for 24 hrs by two fold broth dilution method; type: functional
Aspergillus flavus [35] = experiment: Antifungal activity against Aspergillus flavus ATCC 16870 assessed as polyoxin B MIC incubated for 72 hrs by checker board assay; type: functional
Cryptococcus neoformans [36] = experiment: Synergistic antifungal activity against Cryptococcus neoformans ATCC 32719 assessed as fractional inhibitory concentration index incubated for 72 hrs in presence of fluconazole by checker board assay; type: functional
Cryptococcus neoformans [37] = experiment: Antifungal activity against Cryptococcus neoformans ATCC 32719 assessed as reduction in fungal growth incubated for 24 hrs by two fold broth dilution method; type: functional
Aspergillus flavus [38] = experiment: Synergistic antifungal activity against Aspergillus flavus ATCC 16870 assessed as fractional inhibitory concentration index incubated for 72 hrs in presence of fluconazole by checker board assay; type: functional

| Structure (SMILES) | MIC (Cryptococcus neoformans [1]) | MIC (Aspergillus fumigatus [2]) | MIC (Aspergillus flavus [3]) | MIC (Aspergillus fumigatus [4]) | fractional inhibitory concentration index (FICI) (Candida albicans [5]) | fractional inhibitory concentration index (FICI) (Aspergillus flavus [6]) | MIC (Candida albicans [7]) | MIC (Candida albicans [8]) | MIC (Aspergillus flavus [9]) | MIC (Candida albicans [10]) | MIC (Aspergillus fumigatus [11]) | MIC (Candida albicans [12]) | MIC (Candida albicans [13]) | fractional inhibitory concentration index (FICI) (Aspergillus fumigatus [14]) | MIC (Candida albicans [15]) | fractional inhibitory concentration index (FICI) (Candida albicans [16]) | MIC (Cryptococcus neoformans [17]) | MIC (Aspergillus fumigatus [18]) | MIC (Cryptococcus neoformans [19]) | MIC (Aspergillus fumigatus [20]) | further results |
| --- | --- | --- | --- | --- | --- | --- | --- | --- | --- | --- | --- | --- | --- | --- | --- | --- | --- | --- | --- | --- | --- |
| O=C(/C=C/C(=O)N1CCCC12Cc1ccccc1NC2=O)Nc1ccc(Cl)c(F)c1 (stereo not drawn) | 4 µg/mL | 2 µg/mL | 1 µg/mL | 128 µg/mL (≈ 299 µM) | 2 | 2 | 2 µg/mL (≈ 4.67 µM) | 32 µg/mL (≈ 74.8 µM) | 2 µg/mL | 0.5 µg/mL | 4 µg/mL (≈ 9.35 µM) | 8 µg/mL | 2 µg/mL | 0.5 | 16 µg/mL | 0.5 | 8 µg/mL | 1 µg/mL | 64 µg/mL | 2 µg/mL | MIC (Aspergillus fumigatus [21]): 1 µg/mL; IC50 [22]: 110 µM; fractional inhibitory concentration index (FICI) (Cryptococcus neoformans [23]): 0.75; fractional inhibitory concentration index (FICI) (Aspergillus fumigatus [24]): 0.75; MIC (Cryptococcus neoformans [25]): 256 µg/mL (≈ 598 µM); MIC (Aspergillus flavus [26]): 32 µg/mL (≈ 74.8 µM); MIC (Cryptococcus neoformans [27]): 4 µg/mL; MIC (Aspergillus flavus [28]): 64 µg/mL; MIC (Cryptococcus neoformans [29]): 4 µg/mL; MIC (Candida albicans [30]): 32 µg/mL (≈ 74.8 µM); inhibition (Candida tropicalis): 82.6%; MIC (Aspergillus flavus [31]): 4 µg/mL (≈ 9.35 µM); MIC (Aspergillus flavus [32]): 4 µg/mL; MIC (Candida albicans [33]): 1 µg/mL; MIC (Aspergillus fumigatus [34]): 32 µg/mL; MIC (Aspergillus flavus [35]): 8 µg/mL; fractional inhibitory concentration index (FICI) (Cryptococcus neoformans [36]): 1.5; MIC (Cryptococcus neoformans [37]): 8 µg/mL (≈ 18.7 µM); fractional inhibitory concentration index (FICI) (Aspergillus flavus [38]): 0.63 |
| O=C(/C=C/C(=O)N1CCCC12Cc1ccccc1NC2=O)Nc1ccccc1[N+](=O)[O-] (stereo not drawn) | 4 µg/mL | 8 µg/mL | 2 µg/mL | 64 µg/mL (≈ 152 µM) | 1 | 1.5 | 4 µg/mL (≈ 9.51 µM) | 64 µg/mL (≈ 152 µM) | 2 µg/mL | 2 µg/mL | 4 µg/mL (≈ 9.51 µM) | 4 µg/mL | 2 µg/mL | 0.75 | 32 µg/mL | 1 | 4 µg/mL | 1 µg/mL | 64 µg/mL | 2 µg/mL | MIC (Aspergillus fumigatus [21]): 2 µg/mL; IC50 [22]: 110 µM; fractional inhibitory concentration index (FICI) (Cryptococcus neoformans [23]): 0.75; fractional inhibitory concentration index (FICI) (Aspergillus fumigatus [24]): 1.5; MIC (Cryptococcus neoformans [25]): 64 µg/mL (≈ 152 µM); MIC (Aspergillus flavus [26]): 64 µg/mL (≈ 152 µM); MIC (Cryptococcus neoformans [27]): 8 µg/mL; MIC (Aspergillus flavus [28]): 64 µg/mL; MIC (Cryptococcus neoformans [29]): 8 µg/mL; MIC (Candida albicans [30]): 64 µg/mL (≈ 152 µM); inhibition (Candida tropicalis): 80.9%; MIC (Aspergillus flavus [31]): 4 µg/mL (≈ 9.51 µM); MIC (Aspergillus flavus [32]): 4 µg/mL; MIC (Candida albicans [33]): 2 µg/mL; MIC (Aspergillus fumigatus [34]): 32 µg/mL; MIC (Aspergillus flavus [35]): 4 µg/mL; fractional inhibitory concentration index (FICI) (Cryptococcus neoformans [36]): 1; MIC (Cryptococcus neoformans [37]): 16 µg/mL (≈ 38.1 µM); fractional inhibitory concentration index (FICI) (Aspergillus flavus [38]): 0.75 |
